Assay results: patent publication US7173004B2, “Macrocyclic isoquinoline peptide inhibitors of hepatitis C virus” (Bristol-Myers Squibb Company, priority 2003, dated 2007)

How the values were obtained:
[1] = tested on: HCV replicon; assay: Two-drug combination matrix studies in HCV replicon system, Universal Response Surface Approach (URSA); assay type: cell-based; details: for EC50: Hepatitis C virus
Protocol: In addition to the combination index approach, above, the Universal Response Surface Approach (URSA) was also used to assess the antiviral effects of combinations of NS5A or NS5B inhibitors with the NS3 protease inhibitor. The experiments were conducted in a matrixed format with 8 concentrations of NS3 protease inhibitor crossed against 10 concentrations of NS5A or NS5B inhibitor on each of three plates. 200× stock solutions of each inhibitor concentration were prepared by 3-fold dilution in DMSO. Effects on replication were assessed in the HCV replicon system as described above. The data was analyzed using the URSA as described in Greco, Park and Rustum (Greco, Park, Sook, and Rustum (1990) Application of a New Approach for the Quantitation of Drug Synergism to the Combination of cis-Diamminedichloroplatinum and 1-β-D-Arabinofuranosylcytosine, Cancer Research, 50, 5318–5327). The interaction of the two drugs was assessed by using non-linear regression with a bisection algorithm. Seven parameters were estimated. These include the minimal response or response in the absence of drug, the maximal response or response in the presence of infinite drug, EC50's for the two drugs, slope parameters for the two drugs, and the drug interaction parameter α which provides the assessment of synergism, antagonism or additivity. Additivity is implied when α is equal to zero, synergy if the interaction parameter is larger than zero, and antagonism when the interaction parameter is less than zero. The confidence interval for the interaction parameter is also presented. This interval is used to test for departure from additivity by comparing the bounds to zero—a lower bound of the interval greater than zero indicates synergy, an upper bound of less than zero indicates antagonism, and a value of zero contained in the interval indicates additivity.

[2] = molecular target: T1, human neutrophil elastase (HNE) (Homo sapiens, UniProt P08246); assay: Specificity assay, human neutrophil elastase; assay type: biochemical; details: read-out: HNE activity in the specificity assays (IC50)
T1 construct: purchased Sigma
T1 sequence (P08246 30-267): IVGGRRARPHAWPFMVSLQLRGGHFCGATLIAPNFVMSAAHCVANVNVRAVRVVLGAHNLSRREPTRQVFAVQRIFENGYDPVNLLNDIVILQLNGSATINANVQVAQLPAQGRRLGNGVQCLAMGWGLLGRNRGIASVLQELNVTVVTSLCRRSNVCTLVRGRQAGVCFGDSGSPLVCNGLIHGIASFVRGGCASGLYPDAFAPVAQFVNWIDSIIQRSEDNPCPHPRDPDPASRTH
Protocol: (§1) The specificities of compounds of the present invention were determined against a variety of serine proteases: human neutrophil elastase (HNE), porcine pancreatic elastase (PPE) and human pancreatic chymotrypsin and one cysteine protease: human liver cathepsin B. In all cases a 96-well plate format protocol using calorimetric p-nitroaniline (pNA) substrate specific for each enzyme was used as described previously (PCT Patent Application No. WO 00/09543) with some modifications to the serine protease assays. All enzymes were purchased from Sigma while the substrates were from Bachem.
(§2) Each assay included a 2 hr enzyme-inhibitor pre-incubation at room temperature followed by addition of substrate and hydrolysis to ˜30% conversion as measured on a Spectramax Pro microplate reader. Compound concentrations varied from 100 to 0.4 micromolar (“μM”) depending on their potency. […]
(§3) The percentage of inhibition was calculated using the formula: [1−((UVinh−UVblank)/(UVctl−UVblank))]×100 […]

[3] = molecular target: T2, porcine pancreatic elastase (PPE) (Sus scrofa, UniProt P00772); assay: Specificity assay, porcine pancreatic elastase; assay type: biochemical; details: read-out: PPE activity in the specificity assays (IC50)
T2 construct: purchased Sigma
T2 sequence (P00772 27-266): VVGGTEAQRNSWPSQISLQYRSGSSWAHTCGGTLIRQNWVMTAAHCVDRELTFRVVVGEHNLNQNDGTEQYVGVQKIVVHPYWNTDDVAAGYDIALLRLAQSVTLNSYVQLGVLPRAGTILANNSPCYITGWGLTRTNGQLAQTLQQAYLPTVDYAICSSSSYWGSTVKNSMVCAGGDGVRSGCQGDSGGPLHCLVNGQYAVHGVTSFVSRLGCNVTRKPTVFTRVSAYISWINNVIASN
Protocol: as §1, §2, §3

[4] = tested on: human pancreatic chymotrypsin; assay: Specificity assay, chymotrypsin; assay type: biochemical; details: read-out: Chymotrypsin activity in the specificity assays (IC50)
Protocol: as §1, §2, §3

[5] = compound 28 combined with NS5A inhibitor, matrix study (Table 10)
[6] = compound 28 combined with NS5B inhibitor, Expt 1
[7] = compound 28 combined with NS5B inhibitor, Expt 2

Row | SMILES | EC50 ([1]; matrix study with NS5A inhibitor, URSA estimate (Table 10)) [nM] | EC50 ([1]; matrix study with NS5B inhibitor, Expt 1 (Table 11)) [nM] | EC50 ([1]; matrix study with NS5B inhibitor, Expt 2 (Table 11)) [nM] | Interaction parameter alpha [1, 5] | Overall Result [1, 5] | Overall Result ([1]; compound 28 combined with NS5A inhibitor, matrix study (Table 10), listed as compound 28) | Interaction parameter alpha [1, 6] | Overall Result [1, 6] | Interaction parameter alpha [1, 7] | Overall Result [1, 7] | combination effect with the HCV NS5B inhibitor, matrix format ([1]; two experiments) | IC50 [2] [nM] | IC50 [3] [nM] | IC50 [4] [nM]
1 | COc1ccc2c(OC3CC4C(=O)NC5(C(=O)NS(=O)(=O)C6CC6)CC5C=CCOCCCC(NC(=O)OC(C)(C)C)C(=O)N4C3)nccc2c1 (centres unmarked) [Compound 28, [4-Cyclopropanesulfonylaminocarbonyl-18-(6-methoxy-isoquinolin-1-yloxy)-2,15-dioxo-10-oxa-3,16-diaza-tricyclo[14.3.0.0^4,6]nonadec-7-en-14-yl]-carbamic acid tert-butyl ester] | 9 | 15 | 20 | 0.63 | Additivity | additivity | 0.47 | Additivity | 0.31 | Additivity | overall additivity | – | – | –
2 | CC(C)(C)OC(=O)N[C@H]1CCCCC/C=C\[C@@H]2C[C@@]2(C(=O)NS(C)(=O)=O)NC(=O)[C@@H]2C[C@@H](Oc3nccc4ccccc34)CN2C1=O [Compound 2, [18-(Isoquinolin-1-yloxy)-4-methanesulfonylaminocarbonyl-2,15-dioxo-3,16-diaza-tricyclo[14.3.0.0^4,6]nonadec-7-en-14-yl]-carbamic acid tert-butyl ester] | – | – | – | – | – | – | – | – | – | – | – | > 100000 | > 100000 | > 100000
